Reference: US9161562B2, “Natural sweetener” (Horizon Science Pty Ltd, priority 2004, dated 2015)
Where two headings read alike, the source gives them in different places.

Tests used:
[1] = scale 1 to 100, glucose rated 100, cited from earlier work
[2] = tested on: healthy people; assay: Glycemic Index (GI) test, two-hour blood glucose response vs glucose reference; format: in vivo, humans; settings: when added to sugar; conclusion of Example 11
Experimental: This study was conducted by the Human Nutrition Unit at the University of Sydney using internationally recognised GI methodology, which has been validated by results obtained from small experimental studies and large multi-centre research trials. The experimental procedures used in this study were in accordance with international standards for conducting ethical research with humans and were approved by the Human Research Ethics Committee of Sydney University.
Using standard methodology to determine a food's GI value, a portion of the food containing between 10 and 50 grams of available carbohydrate is fed to 10 healthy people the morning after they have fasted for 10-12 hours overnight. A fasting blood sample is first obtained from each person and then the food is consumed, after which additional blood samples are obtained at regular intervals during the next two hours. In this way, it's possible to measure the total increase in blood sugar produced by that food over a two-hour period. […]
For each subject, the concentration of glucose in each of the eight whole blood samples collected from them during each test session was analysed in duplicate using a HemoCue® B-glucose photometric analyser employing a glucose dehydrogenase/mutarotase enzymatic assay (HemoCue AB, Ängelholm, Sweden). […] Therefore, each blood sample was analysed immediately after it was collected. […]

Row | SMILES | glycemic index (GI) [1] | effect on the GI of sugar [2] | glycemic index (GI) ([1]; listed as table sugar)
1 | O=C(CO)[C@@H](O)[C@H](O)[C@H](O)CO [fructose] | 23 | – | –
2 | O=C[C@H](O)[C@@H](O)[C@@H](O)[C@H](O)CO [galactose] | – | reduces the GI to a low level | –
3 | OC[C@H]1O[C@@](CO)(O[C@H]2O[C@H](CO)[C@@H](O)[C@H](O)[C@H]2O)[C@@H](O)[C@@H]1O [sucrose] | about 65 | – | 65
